Data: US9604961B2, “Histone demethylase inhibitors” (Celgene Quanticel Research, Inc., priority 2012, dated 2017)

Columns and labels:
Format in all cases: biochemical
Jarid1B = Jarid1B (Homo sapiens (Human), UniProt Q9UGL1); test: Jarid1B in vitro enzyme inhibition assay (TR-FRET)
Description: This assay determines the ability of a test compound to inhibit Jarid1A, Jarid1B, JMJD2C, and JMJD2A demethylase activity.
The ability of test compounds to inhibit the activity of Jarid1B was determined in 384-well plate format under the following reaction conditions: 0.8 nM Jarid1B, 300 nM H3K4me3-biotin labeled peptide (Anaspec cat #64357), 2 μM alpha-ketoglutaric acid in assay buffer of 50 mM HEPES, pH7.3, 0.005% Brij35, 0.5 mM TCEP, 0.2 mg/ml BSA, 50 μM sodium L-ascorbate, and 2 μM ammonium iron(II) sulfate. Reaction product was determined quantitatively by TR-FRET after the addition of detection reagent Phycolink Streptavidin-allophycocyanin (Prozyme) and Europium-anti-mono- or di-methylated histone H3 lysine 4 (H3K4me1-2) antibody (PerkinElmer) in the presence of 5 mM EDTA in LANCE detection buffer (PerkinElmer) at a final concentration of 25 nM and 1 nM, respectively.
The assay reaction was initiated by the following: 2 μl of the mixture of 900 nM H3K4me3-biotin labeled peptide and 6 μM alpha-ketoglutaric acid with 2 μl of 11-point serial diluted inhibitor in 3% DMSO was added to each well of the plate, followed by the addition of 2 μl of 2.4 nM Jarid1B to initiate the reaction. The reaction mixture was incubated at room temperature for 30 minutes, and terminated by the addition of 6 μl of 5 mM EDTA in LANCE detection buffer containing 50 nM Phycolink Streptavidin-allophycocyanin and 2 nM Europium-anti-H3K4me1-2 antibody. Plates were read by EnVisionMultilabel Reader in TR-FRET mode (excitation at 320 nm, emission at 615 nm and 665 nm) after 1 hour incubation at room temperature. A ratio was calculated (665/615) for each well and fitted to determine inhibition constant (IC50).

JMJD2C = JMJD2C (Homo sapiens (Human), UniProt Q9H3R0); test: JMJD2C in vitro enzyme inhibition assay (TR-FRET)
Jarid1A = Jarid1A (Homo sapiens (Human), UniProt P29375); test: Jarid1A in vitro enzyme inhibition assay (TR-FRET)
Chain of Jarid1A (P29375 1-1090): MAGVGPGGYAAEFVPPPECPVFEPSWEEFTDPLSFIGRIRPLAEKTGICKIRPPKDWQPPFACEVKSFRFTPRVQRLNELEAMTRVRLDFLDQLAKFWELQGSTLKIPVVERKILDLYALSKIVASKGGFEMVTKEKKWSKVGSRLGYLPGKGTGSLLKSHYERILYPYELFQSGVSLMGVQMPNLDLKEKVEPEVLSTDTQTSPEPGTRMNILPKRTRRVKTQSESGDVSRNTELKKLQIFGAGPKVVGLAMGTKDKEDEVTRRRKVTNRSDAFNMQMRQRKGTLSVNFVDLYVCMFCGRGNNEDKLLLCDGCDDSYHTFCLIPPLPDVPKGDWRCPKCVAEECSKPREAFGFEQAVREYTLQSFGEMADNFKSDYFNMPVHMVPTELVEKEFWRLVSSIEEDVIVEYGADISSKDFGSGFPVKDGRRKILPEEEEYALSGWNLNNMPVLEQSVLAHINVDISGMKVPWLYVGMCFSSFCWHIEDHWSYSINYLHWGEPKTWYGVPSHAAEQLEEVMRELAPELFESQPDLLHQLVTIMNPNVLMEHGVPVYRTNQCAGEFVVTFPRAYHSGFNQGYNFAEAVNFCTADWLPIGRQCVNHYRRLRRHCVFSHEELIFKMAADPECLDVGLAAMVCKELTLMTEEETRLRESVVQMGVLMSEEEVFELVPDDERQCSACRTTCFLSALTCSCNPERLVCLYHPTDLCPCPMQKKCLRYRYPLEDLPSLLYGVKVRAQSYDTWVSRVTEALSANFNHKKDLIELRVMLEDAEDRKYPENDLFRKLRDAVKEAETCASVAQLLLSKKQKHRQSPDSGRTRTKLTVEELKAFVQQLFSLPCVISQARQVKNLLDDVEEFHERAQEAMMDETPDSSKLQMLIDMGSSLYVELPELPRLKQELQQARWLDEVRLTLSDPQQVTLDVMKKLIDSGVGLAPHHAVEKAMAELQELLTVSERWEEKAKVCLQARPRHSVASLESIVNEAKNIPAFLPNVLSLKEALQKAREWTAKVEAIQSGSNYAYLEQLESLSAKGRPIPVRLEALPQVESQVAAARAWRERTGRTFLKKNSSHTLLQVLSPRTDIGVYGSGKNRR
Description: The enzymatic assay of Jarid1A activity is based upon Time Resolved-Fluorescence Resonance Energy Transfer (TR-FRET) detection.

Chain of Jarid1B (Q9UGL1 2-751): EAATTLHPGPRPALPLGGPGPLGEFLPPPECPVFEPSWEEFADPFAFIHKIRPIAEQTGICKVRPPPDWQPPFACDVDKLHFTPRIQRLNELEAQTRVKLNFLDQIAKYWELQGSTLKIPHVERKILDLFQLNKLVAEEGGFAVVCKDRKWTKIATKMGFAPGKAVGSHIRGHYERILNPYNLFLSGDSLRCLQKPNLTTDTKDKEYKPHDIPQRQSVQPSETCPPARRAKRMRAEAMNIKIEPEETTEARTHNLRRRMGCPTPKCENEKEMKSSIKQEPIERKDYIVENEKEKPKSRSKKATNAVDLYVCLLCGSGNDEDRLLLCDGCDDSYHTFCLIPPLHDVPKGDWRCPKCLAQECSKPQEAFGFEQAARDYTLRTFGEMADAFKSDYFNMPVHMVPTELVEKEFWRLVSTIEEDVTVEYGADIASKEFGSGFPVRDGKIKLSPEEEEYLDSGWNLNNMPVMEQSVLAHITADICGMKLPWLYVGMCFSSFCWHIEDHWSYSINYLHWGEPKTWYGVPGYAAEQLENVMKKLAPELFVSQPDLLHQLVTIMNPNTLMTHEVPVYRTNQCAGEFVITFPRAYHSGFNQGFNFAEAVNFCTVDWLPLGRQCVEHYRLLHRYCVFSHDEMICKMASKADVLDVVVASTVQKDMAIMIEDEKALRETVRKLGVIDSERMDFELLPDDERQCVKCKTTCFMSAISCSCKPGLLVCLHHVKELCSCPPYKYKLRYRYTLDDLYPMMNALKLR
Chain of JMJD2C (Q9H3R0 2-372): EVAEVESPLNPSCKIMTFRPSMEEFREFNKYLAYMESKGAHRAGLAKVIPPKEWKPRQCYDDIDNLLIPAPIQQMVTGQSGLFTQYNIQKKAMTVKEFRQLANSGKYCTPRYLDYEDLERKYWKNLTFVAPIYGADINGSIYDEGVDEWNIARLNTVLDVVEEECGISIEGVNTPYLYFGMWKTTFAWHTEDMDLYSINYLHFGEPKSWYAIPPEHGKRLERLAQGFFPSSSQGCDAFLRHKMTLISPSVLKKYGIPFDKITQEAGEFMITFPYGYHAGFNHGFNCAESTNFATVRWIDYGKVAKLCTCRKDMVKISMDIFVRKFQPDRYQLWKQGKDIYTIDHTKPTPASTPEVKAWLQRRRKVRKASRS

Row | Compound | IC50 (Jarid1B) [µM] | IC50 (JMJD2C) [µM] | IC50 (Jarid1A) [µM]
1 | CC(C)Oc1cc(Cl)ccc1COc1ccnn1-c1cc(C(=O)O)ccn1 [Example 113, 2-[5-[(4-chloro-2-propan-2-yloxyphenyl)methoxy]pyrazol-1-yl]pyridine-4-carboxylic acid] | 0.1 to 1 | 1 to 10 | 0.1 to 1
2 | CCC(C)Oc1cc(Cl)ccc1COc1ccnn1-c1cc(C(=O)O)ccn1 (stereo not drawn) [Example 114, 2-[5-[(2-butan-2-yloxy-4-chlorophenyl)methoxy]pyrazol-1-yl]pyridine-4-carboxylic acid] | 0.1 to 1 | 1 to 10 | 0.1 to 1
3 | O=C(O)c1ccnc(-n2nccc2OCc2ccc(F)cc2/C=C/c2ccc(F)cc2)c1 [Example 119, 2-[5-[[4-fluoro-2-[(E)-2-(4-fluorophenyl)ethenyl]phenyl]methoxy]pyrazol-1-yl]pyridine-4-carboxylic acid] | 0.1 to 1 | 1 to 10 | 0.1 to 1
4 | O=C(O)c1ccnc(-n2nccc2OCc2ccc(Cl)cc2/C=C/c2ccc(F)cc2)c1 [Example 120, 2-[5-[[4-chloro-2-[(E)-2-(4-fluorophenyl)ethenyl]phenyl]methoxy]pyrazol-1-yl]pyridine-4-carboxylic acid] | 0.1 to 1 | 1 to 10 | 0.1 to 1
5 | O=C(O)c1ccnc(-n2nccc2OCc2ccc(F)cc2CCc2ccc(F)cc2)c1 [Example 121, 2-[5-[[4-fluoro-2-[2-(4-fluorophenyl)ethyl]phenyl]methoxy]pyrazol-1-yl]pyridine-4-carboxylic acid] | 0.1 to 1 | 1 to 10 | 0.1 to 1
6 | O=C(O)c1ccnc(-n2nccc2OCc2ccc(Cl)cc2CCc2ccc(F)cc2)c1 [Example 122, 2-[5-[[4-chloro-2-[2-(4-fluorophenyl)ethyl]phenyl]methoxy]pyrazol-1-yl]pyridine-4-carboxylic acid] | 0.1 to 1 | 1 to 10 | 0.1 to 1
7 | CCc1cc(C)ccc1COc1ccnn1-c1cc(C(=O)O)ccn1 [Example 135, 2-[5-[(2-ethyl-4-methylphenyl)methoxy]pyrazol-1-yl]pyridine-4-carboxylic acid] | 0.1 to 1 | 1 to 10 | 0.1 to 1
8 | CC(Oc1cc(Cl)ccc1COc1ccnn1-c1cc(C(=O)O)ccn1)c1ccccc1 (stereo not drawn) [Example 136, 2-[5-[[4-chloro-2-(1-phenylethoxy)phenyl]methoxy]pyrazol-1-yl]pyridine-4-carboxylic acid] | 0.1 to 1 | 1 to 10 | 0.1 to 1
9 | CC(Oc1cc(F)ccc1COc1ccnn1-c1cc(C(=O)O)ccn1)c1ccccc1 (stereo not drawn) [Example 137, 2-[5-[[4-fluoro-2-(1-phenylethoxy)phenyl]methoxy]pyrazol-1-yl]pyridine-4-carboxylic acid] | 0.1 to 1 | 1 to 10 | 0.1 to 1
10 | Cc1cc(Br)ccc1COc1ccnn1-c1cc(C(=O)O)ccn1 [Example 142, 2-[5-[(4-bromo-2-methylphenyl)methoxy]pyrazol-1-yl]pyridine-4-carboxylic acid] | 0.1 to 1 | 0.1 to 1 | 0.1 to 1
11 | O=C(O)c1ccnc(-n2nccc2OC2CCc3cc(F)ccc32)c1 (stereo not drawn) [Example 146, 2-[5-[(5-fluoro-2,3-dihydro-1H-inden-1-yl)oxy]pyrazol-1-yl]pyridine-4-carboxylic acid] | 0.1 to 1 | 0.1 to 1 | 0.1 to 1
12 | O=C(O)c1ccnc(-n2nccc2OC2CCc3cc(Cl)ccc32)c1 (stereo not drawn) [Example 147, 2-[5-[(5-chloro-2,3-dihydro-1H-inden-1-yl)oxy]pyrazol-1-yl]pyridine-4-carboxylic acid] | 0.1 to 1 | 1 to 10 | 0.1 to 1
13 | O=C(O)c1ccnc(-n2nccc2OC2CCCc3cc(F)ccc32)c1 (stereo not drawn) [Example 148, 2-[5-[(6-fluoro-1,2,3,4-tetrahydronaphthalen-1-yl)oxy]pyrazol-1-yl]pyridine-4-carboxylic acid] | 0.1 to 1 | 1 to 10 | 0.1 to 1
14 | CCc1ccc(COc2ccnn2-c2cc(C(=O)O)ccn2)c(Cl)c1 [Example 150, 2-[5-[(2-chloro-4-ethylphenyl)methoxy]pyrazol-1-yl]pyridine-4-carboxylic acid] | 0.1 to 1 | 1 to 10 | 0.1 to 1
15 | O=C(O)c1ccnc(-n2nccc2OCc2ccc(C3CC3)cc2Cl)c1 [Example 152, 2-[5-[(2-chloro-4-cyclopropylphenyl)methoxy]pyrazol-1-yl]pyridine-4-carboxylic acid] | 0.1 to 1 | 1 to 10 | 0.1 to 1
16 | O=C(O)c1ccnc(-n2nccc2OCc2ccc(C3CC3)cc2F)c1 [Example 153, 2-[5-[(4-cyclopropyl-2-fluorophenyl)methoxy]pyrazol-1-yl]pyridine-4-carboxylic acid] | 0.1 to 1 | 1 to 10 | 0.1 to 1
17 | O=C(O)c1ccnc(-n2nccc2OCc2ccc(C3CC3)c(Cl)c2)c1 [Example 154, 2-[5-[(3-chloro-4-cyclopropylphenyl)methoxy]pyrazol-1-yl]pyridine-4-carboxylic acid] | 0.1 to 1 | 1 to 10 | 0.1 to 1
18 | CN(CCc1cnn(-c2cc(C(=O)NC#N)ccn2)c1)Cc1ccc(F)cc1 [Example 157, N-cyano-2-[4-[2-[(4-fluorophenyl)methyl-methylamino]ethyl]pyrazol-1-yl]pyridine-4-carboxamide] | < 0.1 | < 0.1 | < 0.1

The next lines start with the values.

Row | IC50 (Jarid1B) [µM] | IC50 (JMJD2C) [µM] | IC50 (Jarid1A) [µM] | Compound
19 | < 0.1 | 0.1 to 1 | < 0.1 | CN(C)CCc1cnn(-c2cc(C(=O)O)ccn2)c1OCc1ccc(F)cc1 [Example 110, 2-[4-[2-(dimethylamino)ethyl]-5-[(4-fluorophenyl)methoxy]pyrazol-1-yl]pyridine-4-carboxylic acid]
20 | < 0.1 | 0.1 to 1 | < 0.1 | COCCOc1cc(Cl)ccc1COc1ccnn1-c1cc(C(=O)O)ccn1 [Example 116, 2-[5-[[4-chloro-2-(2-methoxyethoxy)phenyl]methoxy]pyrazol-1-yl]pyridine-4-carboxylic acid]
21 | < 0.1 | 0.1 to 1 | < 0.1 | O=C(O)c1ccnc(-n2nccc2OCc2cccc3c2OCC3)c1 [Example 123, 2-[5-(2,3-dihydro-1-benzofuran-7-ylmethoxy)pyrazol-1-yl]pyridine-4-carboxylic acid]
22 | < 0.1 | 0.1 to 1 | < 0.1 | CCc1cc(C#N)ccc1COc1ccnn1-c1cc(C(=O)O)ccn1 [Example 126, 2-[5-[(4-cyano-2-ethylphenyl)methoxy]pyrazol-1-yl]pyridine-4-carboxylic acid]
23 | < 0.1 | 0.1 to 1 | < 0.1 | Cc1cc(F)ccc1COc1ccnn1-c1cc(C(=O)O)ccn1 [Example 128, 2-[5-[(4-fluoro-2-methylphenyl)methoxy]pyrazol-1-yl]pyridine-4-carboxylic acid]
24 | < 0.1 | 0.1 to 1 | < 0.1 | CCc1cc(F)ccc1COc1ccnn1-c1cc(C(=O)O)ccn1 [Example 129, 2-[5-[(2-ethyl-4-fluorophenyl)methoxy]pyrazol-1-yl]pyridine-4-carboxylic acid]
25 | < 0.1 | 0.1 to 1 | < 0.1 | Cc1ccc(COc2ccnn2-c2cc(C(=O)O)ccn2)c(F)c1 [Example 131, 2-[5-[(2-fluoro-4-methylphenyl)methoxy]pyrazol-1-yl]pyridine-4-carboxylic acid]
26 | < 0.1 | 0.1 to 1 | < 0.1 | Cc1ccc(COc2ccnn2-c2cc(C(=O)O)ccn2)c(C#N)c1 [Example 134, 2-[5-[(2-cyano-4-methylphenyl)methoxy]pyrazol-1-yl]pyridine-4-carboxylic acid]
27 | < 0.1 | 0.1 to 1 | < 0.1 | O=C(O)c1ccnc(-n2nccc2OCc2ccc(Cl)c(OCc3ccc(F)cc3)c2)c1 [Example 138, 2-[5-[[4-chloro-3-[(4-fluorophenyl)methoxy]phenyl]methoxy]pyrazol-1-yl]pyridine-4-carboxylic acid]
28 | < 0.1 | 0.1 to 1 | < 0.1 | O=C(O)c1ccnc(-n2nccc2OCc2ccc(Cl)c(OCC(F)(F)F)c2)c1 [Example 141, 2-[5-[[4-chloro-3-(2,2,2-trifluoroethoxy)phenyl]methoxy]pyrazol-1-yl]pyridine-4-carboxylic acid]
29 | < 0.1 | 0.1 to 1 | < 0.1 | COc1cc(Br)ccc1COc1ccnn1-c1cc(C(=O)O)ccn1 [Example 143, 2-[5-[(4-bromo-2-methoxyphenyl)methoxy]pyrazol-1-yl]pyridine-4-carboxylic acid]
30 | < 0.1 | 0.1 to 1 | < 0.1 | Cc1cc(I)ccc1COc1ccnn1-c1cc(C(=O)O)ccn1 [Example 144, 2-[5-[(4-iodo-2-methylphenyl)methoxy]pyrazol-1-yl]pyridine-4-carboxylic acid]
31 | < 0.1 | 0.1 to 1 | < 0.1 | COc1cc(I)ccc1COc1ccnn1-c1cc(C(=O)O)ccn1 [Example 145, 2-[5-[(4-iodo-2-methoxyphenyl)methoxy]pyrazol-1-yl]pyridine-4-carboxylic acid]
32 | < 0.1 | 1 to 10 | 0.1 to 1 | O=C(O)c1ccnc(-n2nccc2OC2CCCc3cc(Cl)ccc32)c1 (stereo not drawn) [Example 149, 2-[5-[(6-chloro-1,2,3,4-tetrahydronaphthalen-1-yl)oxy]pyrazol-1-yl]pyridine-4-carboxylic acid]
33 | < 0.1 | 1 to 10 | 0.1 to 1 | CCc1ccc(COc2ccnn2-c2cc(C(=O)O)ccn2)c(F)c1 [Example 151, 2-[5-[(4-ethyl-2-fluorophenyl)methoxy]pyrazol-1-yl]pyridine-4-carboxylic acid]
34 | < 0.1 | 1 to 10 | 0.1 to 1 | O=C(O)c1ccnc(-n2nccc2OCc2ccc(C3CC3)c(F)c2)c1 [Example 155, 2-[5-[(4-cyclopropyl-3-fluorophenyl)methoxy]pyrazol-1-yl]pyridine-4-carboxylic acid]
